Experimental data taken from article PMC10254235, “Design, Synthesis, and Anti-Cervical Cancer and Reversal of Tumor Multidrug Resistance Activity of Novel Nitrogen-Containing Heterocyclic Chalcone Derivatives” (Molecules, 2023).
Read-outs that look alike come from different tables or passages of the source.

Assays:
HeLa cells [1] = assay: MTT antiproliferative assay, HeLa cells; assay type: cell-based, human; details: 48 h
Protocol: (§1) HeLa and SiHa cell lines were obtained from the Procell Life Science Technology Co., Ltd. (Wuhan, China); H8 cell line was obtained from the Shanghai HonSun Biological Technology Co., Ltd. (Shanghai, China); HUVEC cell line was obtained from the Saibaikang (Shanghai) Biotechnology Co., Ltd. (Shanghai, China); HeLa/DDP cell line was obtained from the Guangzhou Jenniobio Biotechnology Co., Ltd. (Guangzhou, China). HeLa, SiHa, H8, and HeLa/DDP cells were cultured in DMEM medium (HyClone). The VEGF of 50 ng/mL was used as the promoter of the VEGFR-2 receptor on HUVEC cell membrane surfaces, and their inhibitory effects on VEGFR-2 were determined. All the mediums were supplemented with 10% FBS (HyClone, GE Healthcare, Australia). Cells were maintained at subconfluency at 37 °C in humidified air containing 5% CO2. The cells were monitored daily and maintained at 80% cell density. All compounds tested were dissolved in DMSO and then diluted by the culture medium before the treatment of cultured cells. Identification reports are available for all types of cell lines involved in this study.
(§2) The cytotoxicity of the target compounds were measured in vitro using the MTT assay. Cells grown in the logarithmic phase were counted and seeded in 96-well cell culture plates (5 × 10^3 cells per well) for 24 h to allow attachment of cells to the wall of the plate. […] Next, 20 μL of 5 mg.mL^−1 MTT solution was added to each well and cultured for 4 h. The old solution was discarded, replaced with 150 μL DMSO solution per well, and shaken for 10 min. The OD value was measured under 490 nm, and the inhibition rate was calculated. The nonlinear regression fitting of the cell growth rate was carried out using SPSS 23.0 software, and the IC50 of the compound was calculated. […] There were 6 compound holes in each group, and the experimental results were presented as the average of 3 experiments. A complete medium containing only cells was used as the blank control, whereas a complete medium without cells was the negative control group. Cisplatin and sorafenib were utilized as the positive control group, and the target compound was the experimental intervention group.

SiHa cells = assay: MTT antiproliferative assay, SiHa cells; assay type: cell-based, human; details: 48 h, mean ± SD
Protocol: as §1, §2

H8 cells = assay: MTT cytotoxicity assay, normal cervical epithelial H8 cells; assay type: cell-based, human; details: 48 h, mean ± SD
Protocol: as §1, §2

HUVEC cells = assay: In vitro HUVEC inhibitory assay (MTT); assay type: cell-based; details: Homo sapiens, 48 h, ± SD
Protocol: as §1, §2
After incubation for 24 h, the cell was collected using centrifugation and washed twice using PBS chilled to 0 °C. Then, the cells were homogenized in RIPA lysis buffer and 1% PMSF, 1% mixed phosphatase inhibitor (Solarbio, Beijing, China). The lysates were incubated on ice for 30 min, intermittently vortexed every 5 min, and centrifuged at 12,000 rpm for 20 min to harvest the supernatants.

HeLa/DDP cells = assay: MTT assay, cisplatin-resistant HeLa/DDP cells; assay type: cell-based, human; details: for IC50: 48 h, read-out: 48h IC50 HeLa/DDP; for RI (resistance index): HeLa/DDP versus HeLa
Protocol: The cytotoxicity of the target compounds were measured in vitro using the MTT assay. Cells grown in the logarithmic phase were counted and seeded in 96-well cell culture plates (5 × 10^3 cells per well) for 24 h to allow attachment of cells to the wall of the plate. […] Next, 20 μL of 5 mg.mL^−1 MTT solution was added to each well and cultured for 4 h. The old solution was discarded, replaced with 150 μL DMSO solution per well, and shaken for 10 min. The OD value was measured under 490 nm, and the inhibition rate was calculated. The nonlinear regression fitting of the cell growth rate was carried out using SPSS 23.0 software, and the IC50 of the compound was calculated. […] A complete medium containing only cells was used as the blank control, whereas a complete medium without cells was the negative control group.
To reduce the adverse reactions caused by the fixation of drug resistance reversal agents, the concentration that reduces the proliferation rate of tumor cells by less than 10% was selected.

HeLa cells [2] = assay: Apoptosis analysis, Annexin V-FITC/PI flow cytometry; assay type: cell-based, human; details: 4 μM, 24 h
Protocol: After incubation, cells were harvested and incubated using […] of Annexin-V/FITC (BD, America) in binding buffer (10 mM HEPES, 140 mM NaCl, and 2.5 mM CaCl2 at pH 7.4) at room temperature for 15 min. The PI solution was then added to the medium for another 10 min incubation. Almost 10,000 events were collected for each sample and analyzed using flow cytometry (BD, LSRFortessa, New York, NY, USA). The procedure for the remaining Western blot was the same as in Section 3.3.3.

[3] = Homo sapiens, MTT, mean ± SD, read-out: 48h IC50 HeLa
[4] = Homo sapiens, single agent, read-out: 48h IC50 HeLa (Table 4)
[5] = Homo sapiens, cisplatin-resistant HeLa/DDP cells, single agent

## COc1cc(O)c(C(=O)/C=C/c2ccc(CN3CCC(OC)CC3)cc2)cc1CN1CCOCC1 [6p, (E)-1-(2-hydroxy-4-methoxy-5-(morpholinomethyl)phenyl)-3-(4-((4-methoxypiperidin-1-yl)methyl)phenyl)prop-2-en-1-one]
HeLa cells [1]; [3]
  IC50: 79.9 ± 2.4 µM
SiHa cells; Homo sapiens
  IC50: 66.04 ± 0.49 µM
H8 cells; Homo sapiens
  IC50: 85.4 ± 3.92 µM

## COc1cc(O)c(C(=O)/C=C/c2ccc(CN3CCC(OC)CC3)cc2)cc1CN1CCC(O)CC1 [6b, (E)-1-(2-hydroxy-5-((4-hydroxypiperidin-1-yl)methyl)-4-methoxyphenyl)-3-(4-((4-methoxypiperidin-1-yl)methyl)phenyl)prop-2-en-1-one]
HeLa cells [1]; [3]
  IC50: 40.13 ± 0.11 µM
SiHa cells; Homo sapiens
  IC50: 57.1 ± 1.3 µM
H8 cells; Homo sapiens
  IC50: 82.5 ± 5.21 µM

## COc1cc(O)c(C(=O)/C=C/c2ccc(CN3CCOCC3)cc2)cc1CN1CCOCC1 [6n, (E)-1-(2-hydroxy-4-methoxy-5-(morpholinomethyl)phenyl)-3-(4-(morpholinomethyl)phenyl)prop-2-en-1-one]
HeLa cells [1]; [3]
  IC50: > 100 µM
SiHa cells; Homo sapiens
  IC50: > 100 µM
H8 cells; Homo sapiens
  IC50: > 100 µM

## COc1cc(O)c(C(=O)/C=C/c2ccc(CN3CCN(C)CC3)cc2)cc1CN1CCCC1 [6m, (E)-1-(2-hydroxy-4-methoxy-5-(pyrrolidin-1-ylmethyl)phenyl)-3-(4-((4-methylpiperazin-1-yl)methyl)phenyl)prop-2-en-1-one]
HeLa cells [1]; [3]
  IC50: 52.43 ± 0.42 µM
SiHa cells; Homo sapiens
  IC50: > 100 µM
H8 cells; Homo sapiens
  IC50: > 100 µM

## COc1cc(O)c(C(=O)/C=C/c2ccc(CN3CCC(OC)CC3)cc2)cc1CN1CCCC1 [6l, (E)-1-(2-hydroxy-4-methoxy-5-(pyrrolidin-1-ylmethyl)phenyl)-3-(4-((4-methoxypiperidin-1-yl)methyl)phenyl)prop-2-en-1-one]
HeLa cells [1]; [3]
  IC50: > 100 µM
SiHa cells; Homo sapiens
  IC50: > 100 µM
H8 cells; Homo sapiens
  IC50: > 100 µM

## COc1cc(O)c(C(=O)/C=C/c2ccc(CN3CCOCC3)cc2)cc1CN1CCC(O)CC1 [6e, (E)-1-(2-hydroxy-5-((4-hydroxypiperidin-1-yl)methyl)-4-methoxyphenyl)-3-(4-(morpholinomethyl)phenyl)prop-2-en-1-one]
HeLa cells [1]; [3]
  IC50: 56.7 ± 0.59 µM
SiHa cells; Homo sapiens
  IC50: > 100 µM
H8 cells; Homo sapiens
  IC50: 75.69 ± 0.49 µM

## COc1cc(O)c(C(=O)/C=C/c2ccc(CN3CCN(C)CC3)cc2)cc1CN1CCC(C)CC1 [6t, (E)-1-(2-hydroxy-4-methoxy-5-((4-methylpiperidin-1-yl)methyl)phenyl)-3-(4-((4-methylpiperazin-1-yl)methyl)phenyl)prop-2-en-1-one]
HeLa cells [1]; [3]
  IC50: 30.9 ± 0.18 µM
SiHa cells; Homo sapiens
  IC50: 36 ± 6.3 µM
H8 cells; Homo sapiens
  IC50: 42.11 ± 0.31 µM

## COc1cc(O)c(C(=O)/C=C/c2ccc(CN3CCOCC3)cc2)cc1CN1CCC(OC)CC1 [6h, (E)-1-(2-hydroxy-4-methoxy-5-((4-methoxypiperidin-1-yl)methyl)phenyl)-3-(4-(morpholinomethyl)phenyl)prop-2-en-1-one]
HeLa cells [1]; [3]
  IC50: > 100 µM
SiHa cells; Homo sapiens
  IC50: > 100 µM
H8 cells; Homo sapiens
  IC50: > 100 µM

## COc1cc(O)c(C(=O)/C=C/c2ccc(CN3CCCC3)cc2)cc1CN1CCC(C)CC1 [6s, (E)-1-(2-hydroxy-4-methoxy-5-((4-methylpiperidin-1-yl)methyl)phenyl)-3-(4-(pyrrolidin-1-ylmethyl)phenyl)prop-2-en-1-one]
HeLa cells [1]; [3]
  IC50: 30.9 ± 0.39 µM
SiHa cells; Homo sapiens
  IC50: 36.1 ± 1.71 µM
H8 cells; Homo sapiens
  IC50: 35.4 ± 0.61 µM

## CNC(=O)c1cc(Oc2ccc(NC(=O)Nc3ccc(Cl)c(C(F)(F)F)c3)cc2)ccn1 [Sorafenib, reference compound]
HeLa cells [1]; [3]
  IC50: 10.8 ± 0.15 µM
HeLa cells [1]; [4]
  IC50: 10.8 ± 0.15 µM
SiHa cells; Homo sapiens
  IC50: 15 ± 1.2 µM
H8 cells; Homo sapiens
  IC50: 18.4 ± 1.04 µM
HUVEC cells
  IC50: 9.2 ± 1.22 µM
HeLa/DDP cells; Homo sapiens, HeLa
  IC50: 12.4 ± 0.54 µM
HeLa cells [2]
  proapoptotic rate: 31.7%

## COc1cccc2c1C(=O)c1c(O)c3c(c(O)c1C2=O)C[C@@](O)(C(=O)CO)C[C@@H]3O[C@H]1C[C@H](N)[C@H](O)[C@H](C)O1 [Doxorubicin]
HeLa cells [1]; [4]
  IC50: 10.6 ± 0.5 µM
HeLa/DDP cells; single agent
  RI (resistance index): 3.93
HeLa/DDP cells; [5]
  IC50: 41.6 ± 2.05 µM

## COc1cc(O)c(C(=O)/C=C/c2ccc(CN3CCCC3)cc2)cc1CN1CCC(O)CC1 [6c, (E)-1-(2-hydroxy-5-((4-hydroxypiperidin-1-yl)methyl)-4-methoxyphenyl)-3-(4-(pyrrolidin-1-ylmethyl)phenyl)prop-2-en-1-one]
HeLa cells [1]; [3]
  IC50: 32.17 ± 0.14 µM
SiHa cells; Homo sapiens
  IC50: 44.49 ± 0.38 µM
H8 cells; Homo sapiens
  IC50: 34 ± 4.14 µM

## COc1cc(O)c(C(=O)/C=C/c2ccc(CN3CCC(O)CC3)cc2)cc1CN1CCCC1 [6i, (E)-1-(2-hydroxy-4-methoxy-5-(pyrrolidin-1-ylmethyl)phenyl)-3-(4-((4-hydroxypiperidin-1-yl)methyl)phenyl)prop-2-en-1-one]
HeLa cells [1]; [3]
  IC50: 46.15 ± 0.35 µM
SiHa cells; Homo sapiens
  IC50: 77.02 ± 0.22 µM
H8 cells; Homo sapiens
  IC50: 71.64 ± 0.48 µM

## COc1cc(O)c(C(=O)/C=C/c2ccc(CN3CCOCC3)cc2)cc1CN1CCC(C)CC1 [6q, (E)-1-(2-hydroxy-4-methoxy-5-((4-methylpiperidin-1-yl)methyl)phenyl)-3-(4-(morpholinomethyl)phenyl)prop-2-en-1-one]
HeLa cells [1]; [3]
  IC50: 88.17 ± 0.72 µM
SiHa cells; Homo sapiens
  IC50: > 100 µM
H8 cells; Homo sapiens
  IC50: > 100 µM

## CC(=O)O[C@H]1C(=O)[C@@]2(C)[C@H]([C@H](OC(=O)c3ccccc3)[C@]3(O)C[C@H](OC(=O)[C@H](O)[C@@H](NC(=O)c4ccccc4)c4ccccc4)C(C)=C1C3(C)C)[C@]1(OC(C)=O)CO[C@@H]1C[C@@H]2O [Paclitaxel, reference compound]
HeLa cells [1]; [4]
  IC50: 20.1 ± 1.05 µM
HeLa/DDP cells; [5]
  IC50: 125 ± 5.3 µM

## COc1cc(O)c(C(=O)/C=C/c2ccc(CN3CCC(C)CC3)cc2)cc1CN1CCN(C)CC1 [6u, (E)-1-(2-hydroxy-4-methoxy-5-((4-methylpiperazin-1-yl)methyl)phenyl)-3-(4-((4-methylpiperidin-1-yl)methyl)phenyl)prop-2-en-1-one]
HeLa cells [1]; [3]
  IC50: 28.01 ± 0.14 µM
SiHa cells; Homo sapiens
  IC50: 28.2 ± 0.5 µM
H8 cells; Homo sapiens
  IC50: 42.5 ± 0.85 µM

## COc1cc(O)c(C(=O)/C=C/c2ccc(CN3CCC(C)CC3)cc2)cc1CN1CCC(OC)CC1 [6g, (E)-1-(2-hydroxy-4-methoxy-5-((4-methoxypiperidin-1-yl)methyl)phenyl)-3-(4-((4-methylpiperidin-1-yl)methyl)phenyl)prop-2-en-1-one]
HeLa cells [1]; [3]
  IC50: 47.05 ± 0.11 µM
SiHa cells; Homo sapiens
  IC50: 85.04 ± 0.47 µM
H8 cells; Homo sapiens
  IC50: 72.9 ± 1.08 µM

## N.N.[Cl][Pt][Cl] [Cisplatin, reference compound]
HeLa cells [1]; MTT, mean ± SD, read-out: 48h IC50 HeLa
  IC50: 13.6 ± 1.63 µM
HeLa cells [1]; single agent, read-out: 48h IC50 HeLa (Table 4)
  IC50: 13.6 ± 1.63 µM
SiHa cells
  IC50: 21.6 ± 2.9 µM
H8 cells
  IC50: 24.8 ± 1.37 µM
HeLa/DDP cells; single agent
  RI (resistance index): 7.36
HeLa/DDP cells; cisplatin-resistant HeLa/DDP cells, single agent
  IC50: 100 ± 7.94 µM

## COc1cc(O)c(C(=O)/C=C/c2ccc(CN3CCC(C)CC3)cc2)cc1CN1CCC(C)CC1 [6r, (E)-1-(2-hydroxy-4-methoxy-5-((4-methylpiperidin-1-yl)methyl)phenyl)-3-(4-((4-methylpiperidin-1-yl)methyl)phenyl)prop-2-en-1-one]
HeLa cells [1]; [3]
  IC50: 25.5 ± 1.21 µM
SiHa cells; Homo sapiens
  IC50: 36.6 ± 1.94 µM
H8 cells; Homo sapiens
  IC50: 42.2 ± 0.8 µM

## COc1cc(O)c(C(=O)/C=C/c2ccc(CN3CCOCC3)cc2)cc1CN1CCCC1 [6j, (E)-1-(2-hydroxy-4-methoxy-5-(pyrrolidin-1-ylmethyl)phenyl)-3-(4-(morpholinomethyl)phenyl)prop-2-en-1-one]
HeLa cells [1]; [3]
  IC50: 37.74 ± 0.22 µM
SiHa cells; Homo sapiens
  IC50: 47.65 ± 0.19 µM
H8 cells; Homo sapiens
  IC50: 58.46 ± 0.19 µM

## COc1cc(O)c(C(=O)/C=C/c2ccc(CN3CCN(C)CC3)cc2)cc1CN1CCC(O)CC1 [6d, (E)-1-(2-hydroxy-5-((4-hydroxypiperidin-1-yl)methyl)-4-methoxyphenyl)-3-(4-((4-methylpiperazin-1-yl)methyl)phenyl)prop-2-en-1-one]
HeLa cells [1]; [3]
  IC50: > 100 µM
SiHa cells; Homo sapiens
  IC50: > 100 µM
H8 cells; Homo sapiens
  IC50: > 100 µM

## COc1cc(O)c(C(=O)/C=C/c2ccc(CN3CCC(O)CC3)cc2)cc1CN1CCC(O)CC1 [6a, (E)-1-(2-hydroxy-5-((4-hydroxypiperidin-1-yl)methyl)-4-methoxyphenyl)-3-(4-((4-hydroxypiperidin-1-yl)methyl)phenyl)prop-2-en-1-one]
HeLa cells [1]; [3]
  IC50: 72.9 ± 0.12 µM
SiHa cells; Homo sapiens
  IC50: > 100 µM
H8 cells; Homo sapiens
  IC50: > 100 µM
